Source: patent US10329304B2, “Compounds and methods for inhibition of hedgehog signaling and phosphodiesterase” (Vanderbilt University, priority 2014, dated 2019)
Like-named read-outs stand apart in the source and are kept apart here.

What was measured:
[1] = test system: Hedgehog signaling (TM3-Gli-Luc); assay: TM3-Gli-Luc luciferase reporter assay stimulated with 20 nM SAG; assay type: cell-based
Summary of the method: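 TM3-Gli-Luc cells on 0.1% gelatin in DMEM/F12 with 2.5% FBS, treated 48 h with compound plus 20 nM SAG. Steady-Glo luminescence normalized to CellTiter-Glo viability, DMSO-only (no SAG) background subtracted, percent of SAG control. EC50 averaged from ≥2 independent days ±SEM.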

[2] = test system: Gli1 transcription; assay: Sufu−/− mouse embryonic fibroblasts qRT-PCR; assay type: cell-based
Description: (§1) In light of EGM1's ability to halt Hh transcriptional activity at a node downstream of the negative regulator Sufu, and thus also downstream of Smo, we sought to confirm mode of action retention with our most promising analogs. Therefore, we employed Sufu−/− mouse embryonic fibroblasts (MEF) that display constitutively active transcription of Hh target genes Gli1 and Ptch1 and monitored the ability of our optimized analogs to repress signaling via quantitative reverse transcription-PCR (qRT-PCR). […] We then evaluated improved analogs from multiple structural classes including those from Table 1 with cyclohexylthiophene cores as well as from Table 13 with structurally distinct core modifications.
(§2) Sufu^−/− cells were seeded into 12-well plates at a density of 100,000 cells/well in D10 FBS and incubated for 24 hours. Small molecule solutions were prepared by adding the desired amount of compound from 10 mM DMSO stock to D0.5 FBS. Negative control was prepared by adding an equi-volume amount of DMSO to D0.5 FBS as compared to small molecule treated conditions. Cell plating medium was aspirated and replaced with 1 mL of prepared small molecule-containing media, and plates were incubated for 24 hours before proceeding to RNA isolation.
(§3) Cells were washed 1× with 1× phosphate-buffered saline (PBS) then RNA was isolated using the Qiagen RNeasy Mini Kit (Qiagen, Germantown, Md., USA) according to the manufacturer's protocol, eluting RNA from the spin column with 30 μL of RNase-free water. RNA was placed on ice and immediately subjected to reverse transcription. Remaining RNA was stored at −80° C.
(§4) Reverse transcription polymerase chain reaction (RT-PCR) was performed with the Applied Biosystems High Capacity cDNA Reverse Transcription Kit (ThermoFisher Scientific, Waltham, Mass., USA) using an Eppendorf MasterCycler. Each 20 μL reaction contained 0.5 μg of total RNA, 2 μL of 10×RT Buffer, 0.8 μL of 25×dNTP Mix (100 mM), 2 μL of 10×RT Random Primers, 1 μL of MultiScribe® Reverse Transcriptase (50 U/μL), 1 μL of Recombinant RNasin® Ribonuclease Inhibitor (40 U/μL) (Promega, Madison, Wis., USA), and nuclease-free water. Reverse transcription was performed with the following program: 25° C. for 10 minutes, 37° C. for 120 minutes, and 85° C. for 5 minutes. The cDNA was subjected to quantitative real-time PCR (Q-PCR) or stored at −20° C.
(§5) Quantitative real-time PCR was performed on an Applied Biosystems 7900 HT Fast Real Time PCR System in 384-well format. Each cDNA sample was assayed in triplicate with both probe of interest and control probe. Master mixes for each probe were prepared corresponding to 10 μL of Applied Biosystems TaqMan Universal PCR Master Mix (ThermoFisher Scientific, Waltham, Mass., USA), 1 μL of primer, and nuclease-free water corresponding to a volume providing 20 μL reactions when loading an average of 50 ng of cDNA. Quantitative real-time PCR was run with the following thermal cycling protocol: 50° C. for 2 min., 95° C. for 10 min., and 40 cycles of 95° C. for 15 seconds, 60° C. for 1 min., then fluorescence reading. The following FAM probes were purchased from Life Technologies (Carlsbad, Calif., USA): mouse GAPDH, Mm99999915_g1; mouse Gli1, Mm00494646_g1; mouse Ptch1, Mm01306905_m1.
(§6) Quantitative real-time PCR data for Hh signaling inhibition was quantitated using the ΔΔCt method. Control probe values were subtracted from probe of interest values to arrive at the ΔCt value. The ΔCt value was transformed by 2-^ΔCt to arrive at the ΔΔCt value. All ΔΔCt values were divided by the average negative control ΔΔCt value to provide percent Hh signaling activity. Percent inhibition values were derived by calculating the inverse of percent activity. Data is reported as mean±standard error of the mean (SEM), representing at least two biological replicates, each quantitated in triplicate.

[3] = Lipophilic efficiency (LipE = pEC50 − cLogP) and cLogP
Protocol: Therefore, we prioritized phenotypic analog evaluation in the Gli-responsive luciferase reporter line TM3-Gli-Luc stimulated with 20 nM Smo agonist (SAG) while concurrently monitoring non-specific cellular toxicity. Additionally, lipophilic efficiency (LipE), a concurrent readout of a compound's potency (pEC50) and lipophilicity (cLogP) derived by subtracting the latter from the former, was utilized to optimize solubility properties (Table 12B), allowing for straightforward tracking of compounds with improvements in both parameters.

[4] = test system: zebrafish embryos; assay: Zebrafish embryo phenotypic assay (ZF); assay type: in vivo; conditions: wild-type embryonic zebrafish, dosed 5 hpf
Protocol: All zebrafish experiments were approved by Vanderbilt University Institutional Animal Care and Use Committee. Wild-type zebrafish of AB strain were maintained using standard protocols. Chemical screen for small molecules was performed as previously described. Briefly, pairs of zebrafish were mated, and fertilized eggs were arrayed in 96-well microtiter plates (5 embryos/well) containing 250 μl E3 water. At ˜4-hpf, small molecule library from Vanderbilt High Throughput Screening Facility was added to each well to the final concentration of 5 μM. Embryos were incubated at 28.5° C. until 24 and 48-hpf, when they were examined for gross morphologic changes indicative of disruption in embryonic patterning. A total of ˜30,000 compounds were screened.
ZF refers to wild-type embryonic zebrafish phenotypic assay involving dosing n=˜10 embryos in E3 egg water with compound from either a stock of 1 mM or 10 mM in DMSO at 5 hours post-fertilization and observing at 24, 48, and 72 hours post-fertilization.

[5] = test system: Ptch1 transcription; assay: Sufu−/− mouse embryonic fibroblasts qRT-PCR; assay type: cell-based; conditions: for inhibition at 10 µM: Mus musculus, Fibroblast, read-out: Sufu Null (Ptc) % Inh., 10 μM
Description: as §1, §2, §3, §4, §5, §6

[6] = test system: Gli1 mRNA; assay: Hh % Inh.: SAG-induced Gli1 expression in C3H10T½ cells (qPCR); assay type: cell-based; conditions: Mus musculus, C3H 10T1/2, SAG-induced (100 nM), 24 hours; for inhibition at 1 µM: 1 pM [sic], read-out: C3H10T1/2 qPCR, Gh1 mRNA % Inh., 1 pM; for inhibition at 10 µM: 10 pM [sic], read-out: C3H10T1/2 qPCR, Gh1 mRNA % Inh., 10 pM; for EC50: read-out: C3H10T1/2 qPCR, Gh1 mRNA EC50
Protocol: Compounds are dosed from 10 mM DMSO stock solutions, and mRNA is isolated after 24 hours of compound treatment. mRNA is reverse transcribed to produce cDNA which is quantified by quantitative polymerase chain reaction (qPCR) in triplicate and levels are normalized to GAPDH levels. Data is presented as percent inhibition compared to positive control (SAG).

[7] = molecular target: T1, Smo cyclopamine (Cyc) binding site (Homo sapiens, UniProt Q99835); assay: BODIPY-cyclopamine competition in HEK-293T cells overexpressing Smo
T1 construct: expressed in transfected cells; host or cells: HEK-293T
Protocol: Thus, HEK-293T cells overexpressing Smo were concurrently treated with 5 nM BODIPY-Cyc and molecules of interest.

[8] = test system: PKA activation; assay: Immunostaining of autophosphorylated PKA catalytic subunit in NIH3T3 cells; assay type: cell-based; conditions: SAG-stimulated NIH3T3 cells, Egm 5 μM, Rolipram 10 μM
Protocol: NIH3T3 cells were plated on Poly-D-Lysine-coated glass coverslips and were cultured at 37° C., 5% CO2 in DMEM medium containing 10% fetal bovine serum until reaching 75% confluency. For one set of experiments, cells were then transfected with VSV-tagged PDE4D3 plasmid (gift from Miles Houslay, University of Glasgow, Scotland, UK) using Fugene6 transfection reagent (Roche, Indianapolis, Ind.) per manufacturer's protocol. Afterward, cell medium was replaced with DMEM/0.5% FBS containing either 5 μM eggmanone or DMSO and incubated overnight at 37° C., 5% CO2. Cells were fixed in 4% PFA at room temperature for 10 minutes prior to permeabilization, blocking, and staining with primary antibodies against Arl13b (gift of Tamary Caspary, Emory University, Atlanta, Ga.) and VSV (AbCam, Cambridge, Mass.). Fluorescent immunocytochemistry was performed using species-specific, secondary antibodies (Jackson Immunoresearch, West Grove, Pa.). For additional immunocytochemistry experiment, cells were treated with 20 nM SAG in the presence or absence of 5 uM Eggmanone. After overnight incubation, cells were washed with PBS, fixed for 10 minutes in 4% PFA, permeabilized 20 minutes at −20C with cold methanol, blocked with PBS/1% BSA, and incubated with primary antibodies to phospho-PKA catalytic domain Thr197 (Cell Signaling, Danvers, Mass.) and then to Arl13b. An additional overnight blocking step using unconjugated rabbit IgG was required between primary antibody incubations since both antibodies were produced in rabbit. Fluorescent conjugated secondary antibodies were used for visualization. Data analysis was performed in part through the use of the VUMC Cell Imaging Shared Resource.
Using ImageJ software (National Institutes of Health, developed by W. Rasband), a region of interest was created using the magic wand tool on Arl13b channel and transposed to the Gli2 channel, and integrated density was measured and reported as arbitrary units (a.u.). For phospho-PKA, using ImageJ, a line selection tool was used to select a line projected through the length of the primary cilia and an equal length beyond. The intensity values were potted and the cumulative florescence (area under the curve) was calculated for three cilia, blindly, for each treatment. These values for cilia and pericilia domain were analyzed by a two tailed students t-test. For correlation analysis, correlation coefficient for intensity of gamma-tubulin and phosphor-PKA were calculated and compared among treatments with students t-test.

[9] = 20 nM SAG, mean ± standard error of the mean, read-out: TM3-Gli-Luc EC50
[10] = TM3-Gli-Luc reporter line stimulated with 20 nM SAG, mean ± SEM, Table 14, read-out: TM3-Gli-Luc EC50
[11] = Calculated as pEC50 - cLogP, Molinspiration Cheminformatics
[12] = Table 9A, read-out: TM3 G8 Luciferase EC 50

T1 sequence (Q99835 28-787): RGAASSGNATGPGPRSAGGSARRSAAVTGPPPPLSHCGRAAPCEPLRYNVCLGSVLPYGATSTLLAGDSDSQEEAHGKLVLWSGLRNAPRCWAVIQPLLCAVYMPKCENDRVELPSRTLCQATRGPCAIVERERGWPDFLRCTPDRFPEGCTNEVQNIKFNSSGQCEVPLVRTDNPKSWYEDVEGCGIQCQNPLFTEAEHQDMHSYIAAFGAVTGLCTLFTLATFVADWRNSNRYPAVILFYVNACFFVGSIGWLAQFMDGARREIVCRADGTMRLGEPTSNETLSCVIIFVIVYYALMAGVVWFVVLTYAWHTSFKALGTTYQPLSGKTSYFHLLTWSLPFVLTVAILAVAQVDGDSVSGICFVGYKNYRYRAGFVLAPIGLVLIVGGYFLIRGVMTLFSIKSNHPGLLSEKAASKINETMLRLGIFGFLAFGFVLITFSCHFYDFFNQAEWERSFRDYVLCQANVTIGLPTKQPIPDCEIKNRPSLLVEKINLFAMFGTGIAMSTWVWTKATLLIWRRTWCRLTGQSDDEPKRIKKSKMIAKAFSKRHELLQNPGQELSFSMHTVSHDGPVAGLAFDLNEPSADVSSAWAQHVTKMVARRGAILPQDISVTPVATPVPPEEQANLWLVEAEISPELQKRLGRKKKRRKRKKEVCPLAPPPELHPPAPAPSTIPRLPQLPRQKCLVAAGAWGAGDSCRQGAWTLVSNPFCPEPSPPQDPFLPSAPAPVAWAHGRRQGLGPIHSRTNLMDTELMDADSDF

| Structure (SMILES) | EC50 [1, 12] [µM] | inhibition at 10 µM [5] [%] | inhibition at 1 µM [6] [%] | inhibition at 10 µM [6] [%] | EC50 [6] [µM] | other results |
| --- | --- | --- | --- | --- | --- | --- |
| O=C(CSc1nc2sc3c(c2c(=O)n1C1CC1)CCCC3)c1cccs1 [Formula 9b] | – | – | – | – | – | EC50 [1, 9]: 1.89 ± 0.75 µM; EC50 [1, 10]: 1.89 ± 0.75 µM; Transcriptional inhibition in the Sufu−/− cell line, in words ([2]; Gli1 and Ptch1): general ability to inhibit transcriptional activity; LipE [3, 11]: 1.40; LipE ([3]; pEC50 - cLogP, Table 14): 1.40 |
| O=C(CSc1nc2sc3c(c2c(=O)n1C1CC1)CCCC3)c1ccccc1 [JEH-1-163-1] | 1.96 | 41.9 | – | – | – | ZF Phenotype EC100 [4]: 0.81 µM |
| C=C(C)Cn1c(SCC(=O)N2CCCCC2)nc2sc3c(c2c1=O)CCCC3 [JEH-3-048-3] | 6.31 | -13.7 | 33.8 | 98.6 | – | – |
| C=C(C)Cn1c(SCC(=O)N2CCCCC2C)nc2sc3c(c2c1=O)CCCC3 (stereo not drawn) [JEH-3-069-2] | 2.5 | 77.6 | 38.6 | 97.6 | 2.74 | – |
| C=C(C)Cn1c(SCC(=O)c2cccn2C)nc2sc3c(c2c1=O)CCCC3 [JEH-3-077] | – | 52.1 | 47.1 | 89.1 | 1.13 | – |
| CCn1c(SCC(=O)c2cccs2)nc2sc3c(c2c1=O)CCCC3 [JEH-3-087-1] | 12 | 21.6 | 39.5 | 96.1 | 1.37 | – |
| CCCn1c(SCC(=O)c2cccs2)nc2sc3c(c2c1=O)CCCC3 [JEH-3-087-2] | 1.58 | 12.1 | 64.2 | 101 | 0.789 | – |
| CC1=C2C[C@H]3[C@@H](CC=C4CC(=O)CC[C@@]43C)[C@@H]2CC[C@]12O[C@@H]1C[C@H](C)CN(CCNC(=O)CCCCCNC(=O)CCc3ccccc3)[C@H]1[C@H]2C [KAAD-Cyc, KAAD-cyclopamine, reference compound] | – | – | – | – | – | Displacement of BODIPY-cyclopamine (5 nM) from Smo [7]: completely displaced BODIPY-Cyc |
| Cc1c(C(=O)Nc2ccc(N3C[C@@H](C)O[C@@H](C)C3)nc2)cccc1-c1ccc(OC(F)(F)F)cc1 [Sonidegib, reference compound] | – | – | – | – | – | Hh inhibitory activity / potency in words ([1]; 20 nM SAG): displayed expected potency; Hh inhibitory activity / potency in words ([1]; 20 nM SAG, listed as 2): low-nanomolar; EC50 [1, 9]: 0.0012 ± 0.0002 µM; EC50 [1, 10]: 0.0012 ± 0.0002 µM; inhibition of Gli1 transcription ([2]; 0.1 μM): failed to inhibit transcription; inhibition of Ptch1 transcription ([5]; 0.1 μM): failed to inhibit transcription; LipE [3, 11]: 3.02; LipE ([3]; pEC50 - cLogP, Table 14): 3.02 |
| CCCC(=O)Nc1ncnc2c1ncn2[C@@H]1O[C@@H]2COP(=O)(O)O[C@H]2[C@H]1OC(=O)CCC [dibutyril cAMP (DBA), dibutyril cAMP, reference compound] | – | – | – | – | – | PKA activation (phospho-PKA-C staining), spatial distribution [8]: induce spatially localized PKA activation in the basal body; PKA activation (phospho-PKA-C staining), spatial distribution ([8]; listed as dibutyril cAMP): more diffuse increase in phospho-PKA staining |
